Tested on: bacteria
Assay: Antibacterial activity
Type: cell-based

Structure (SMILES)	antibacterial activity
COC1(C)CC(O[C@H]2[C@H](C)[C@@H](OC3OC(C)CC(N(C)C)C3O)[C@](C)(O)C[C@@H](C)C(=O)[C@H](C)[C@@H](O)[C@](C)(O)[C@@H](CCF)OC(=O)[C@@H]2C)OC(C)C1O (some centres unmarked) [15-fluoroerythromycin A, 15-Fluoroerythromycin A]	strong antibacterial activity
CCC[C@H]1OC(=O)[C@H](C)[C@@H](O[C@H]2C[C@@](C)(OC)[C@@H](O)[C@H](C)O2)[C@H](C)[C@@H](O[C@@H]2O[C@H](C)C[C@H](N(C)C)[C@H]2O)[C@](C)(O)C[C@@H](C)C(=O)[C@H](C)[C@@H](O)[C@]1(C)O [15-methylerythromycin A]	strong antibacterial activity

Reference: patent publication US6492562B1, “Racemic thioesters for production of polyketides” (Kosan Biosciences, Inc., priority 1999, dated 2002)
